Measured values reported in US20040006777A1, “Human lymphoid protein tyrosine phosphatases” (HSC Research and Development Limited Partnership, priority 1998, published 2004).

Experiments:
Cbl = conditions: Jurkat cells, pervanadate treatment; cited from earlier work
Lyp1 = molecular target: T1, Lyp1 (Homo sapiens, UniProt Q9Y2R2); assay: In vitro phosphatase assay with 33P labelled Raytide peptide and Lyp immunoprecipitates; assay type: biochemical; conditions: data not shown
T1 construct: made in house; host or cells: COS cells (transient transfection, pcDNA3); anti-T7 immunoprecipitate
T1 sequence (Q9Y2R2 1-807): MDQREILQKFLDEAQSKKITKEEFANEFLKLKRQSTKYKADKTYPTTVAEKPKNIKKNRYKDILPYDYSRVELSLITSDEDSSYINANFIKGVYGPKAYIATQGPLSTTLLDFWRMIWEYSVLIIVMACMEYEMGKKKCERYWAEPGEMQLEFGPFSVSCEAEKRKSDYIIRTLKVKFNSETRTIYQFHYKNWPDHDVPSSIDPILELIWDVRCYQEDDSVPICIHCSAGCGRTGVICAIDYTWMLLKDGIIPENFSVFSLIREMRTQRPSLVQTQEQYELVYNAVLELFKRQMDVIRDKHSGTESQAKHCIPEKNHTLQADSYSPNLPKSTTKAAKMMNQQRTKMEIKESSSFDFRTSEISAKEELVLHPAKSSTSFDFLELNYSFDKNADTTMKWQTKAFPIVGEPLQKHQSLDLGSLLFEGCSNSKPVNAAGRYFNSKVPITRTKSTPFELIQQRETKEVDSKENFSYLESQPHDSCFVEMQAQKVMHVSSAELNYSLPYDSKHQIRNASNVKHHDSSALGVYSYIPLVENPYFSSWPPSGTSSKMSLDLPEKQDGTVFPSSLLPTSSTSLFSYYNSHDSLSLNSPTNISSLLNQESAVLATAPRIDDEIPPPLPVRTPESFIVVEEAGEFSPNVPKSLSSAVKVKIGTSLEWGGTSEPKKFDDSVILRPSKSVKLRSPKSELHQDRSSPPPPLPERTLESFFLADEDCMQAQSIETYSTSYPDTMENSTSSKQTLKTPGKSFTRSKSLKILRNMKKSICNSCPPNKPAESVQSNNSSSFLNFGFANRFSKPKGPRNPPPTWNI
Procedure: Anti-Lyp immunoprecipitates from untransfected and pcDNA3-Lyp1 transfected cells were prepared in pervanadate free lysis buffer and incubated with ^33P labelled substrate Raytide. At the indicated time points reactions were stopped by the addition of charcoal and the free ^33P released from the peptide and now present in the supernatant measured by liquid scintillation counting.
Raytide peptide was ^33P labelled on tyrosine residues in vitro using the tyrosine kinase p60src and purified on phosphocellulose paper. Release of ^33P over time was measured in the phosphatase assay and compared to controls from untransfected cells.
Specifically, the synthetic peptide Raytide was phosphorylated according to the method described by Guan et al., (1994)(54), on tyrosine by p60src (Oncogene Science) as follows: 10 μg Raytide in 50 mM Hepes pH 7.5, 10 mM MgCl2, 0.067% mercaptoethanol, 0.05 mM ATP was incubated with 300 μCiγ^33P ATP per ml and 2 μg p60src in a final volume of 30 μl. The reaction was allowed to proceed for 30 minutes at 30° C. and was stopped by the addition of […] 10% phosphoric acid.
The sample was spotted onto two 1×1 cm sheets of P81 phophocellulose paper and extensively washed with 0.5% phosphoric acid. […]
The phosphorylated substrate was used in the phosphatase assay as described by Stueli et al (1989)(54). […] After centrifugation the free ^33P in the supernatant was measured.

inhibition of Lyp tyrosine phosphatase activity (Lyp1): completely inhibited
Substance: pervanadate [reference compound]
phosphorylation of Cbl (Cbl): marked increase
